Test results published in US20190284192A1, “NITROGENOUS MACROCYCLIC COMPOUND, PREPARATION METHOD THEREFOR, PHARMACEUTICAL COMPOSITION AND APPLICATION THEREOF” (LUOXIN PHARMACEUTICAL (SHANGHAI) CO., LTD., priority 2016, published 2019).
Like-named read-outs stand apart in the source and are kept apart here.

Legend:
[1] = biological target: T1, BRD4 (BD2) (Homo sapiens, UniProt O60885); test: BRD4 (BD2) bromodomain binding, HTRF; conditions: 2 h incubation at r.t.
T1 construct: Each member comprises two tandem bromodomains (BD1 and BD2) for recognizing the acetylated lysine residues

[2] = tested on: MV-4-11 cells; test: Inhibitory effect on MV-4-11 cells (CellTiter-Glo); format: cell-based; conditions: Homo sapiens, read-out: MV-4-11
[3] = biological target: T2, BRD4 (BD1) (Homo sapiens, UniProt O60885); test: BRD4 (BD1) bromodomain binding, HTRF; conditions: 2 h incubation at r.t.
T2 construct: Each member comprises two tandem bromodomains (BD1 and BD2) for recognizing the acetylated lysine residues

[4] = MV4-11, 72 hours, CellTiter-Glo

Row | Compound | IC50 [1] | IC50 [2, 4] | IC50 [3] | IC50 ([2]; MV4-11, 72 h)
1 | CC[C@@H]1N=C(c2ccc(F)cc2)c2cc(Cl)c(NS(=O)(=O)CC)cc2-c2cn(C)c(=O)cc21 [Compound 4065, (S)—N-(9-chloro-5-ethyl-7-(4-flurophenyl)-2-methyl-3-oxo-3,5-dihydro-2H-benzo[c]pyrido[3,4-e]azepin-10-yl)ethylsulfonamide] | 1 nM | 1 nM | 2 nM | –
2 | CC[C@@H]1N=C(c2ccc(F)cc2)c2cc(F)c(NS(=O)(=O)CC)cc2-c2cn(C)c(=O)cc21 [Compound 4066, (S)—N-(5-ethyl-9-fluoro-7-(4-flurophenyl)-2-methyl-3-oxo-3,5-dihydro-2H-benzo[c]pyrido[3,4-e]azepin-10-yl)ethylsulfonamide] | 1 nM | 0.4 nM | 1 nM | –
3 | CCS(=O)(=O)Cc1ccc2c(c1)-c1cn(C)c(=O)cc1[C@H](CC(=O)O)N=C2c1ccc(F)cc1 [Compound 4067, (S)-2-(10-((ethylsulfonyl)methyl)-7-(4-flurophenyl)-2-methyl-3-oxo-3,5-dihydro-2H-benzo[c]pyrido[3,4-e]azepin-5-yl)acetic acid] | 1 nM | > 2000 nM | 6 nM | –
4 | CCS(=O)(=O)Nc1cc2c(cc1Cl)C(c1ccc(Cl)cc1)=N[C@@H](C)c1cc(=O)n(C)cc1-2 [Compound 4068, (S)—N-(9-chloro-7-(4-chlorophenyl)-2,5-dimethyl-3-oxo-3,5-dihydro-2H-benzo[c]pyrido[3,4-e]azepin-10-yl)ethylsulfonamide] | 0.5 nM | 1 nM | 1 nM | –
5 | C[C@@H]1N=C(c2ccc(F)cc2)c2cc(Cl)c(N)cc2-c2cn(C)c(=O)cc21 [Compound 4069, (S)-10-amino-9-chloro-7-(4-flurophenyl)-2,5-dimethyl-2,5-dihydro-3H-benzo[c]pyrido[3,4-e]azepin-3-ketone] | 2 nM | 35 nM | 4 nM | –
6 | C[C@@H]1N=C(c2ccc(F)cc2)c2cc(F)c(N)cc2-c2cn(C)c(=O)cc21 [Compound 4070, (S)-10-amino-9-fluoro-7-(4-flurophenyl)-2,5-dimethyl-2,5-dihydro-3H-benzo[c]pyrido[3,4-e]azepin-3-ketone] | 2 nM | – | 3 nM | 16 nM
7 | C[C@@H]1N=C(c2ccc(F)cc2)c2cc(F)c(NS(C)(=O)=O)cc2-c2cn(C)c(=O)cc21 [Compound 4074, (S)—N-(9-fluoro-7-(4-flurophenyl)-2,5-dimethyl-3-oxo-3,5-dihydro-2H-benzo[c]pyrido[3,4-e]azepin-10-yl) methylsulfamide] | 1 nM | 2 nM | 1 nM | –
8 | CCS(=O)(=O)Cc1ccc2c(c1)-c1cn(C)c(=O)cc1[C@H](C)N=C2c1ccc(C#N)cc1 [Compound 4075] | 2 nM | 10 nM | 4 nM | –
9 | CCS(=O)(=O)Cc1ccc2c(c1)-c1cn(C)c(=O)cc1[C@H](CC(N)=O)N=C2c1ccc(F)cc1 [Compound 4076, (S)-2-(10-((ethylsulfonyl)methyl)-7-(4-flurophenyl)-2-methyl-3-oxo-3,5-dihydro-2H-benzo[c]pyrido[3,4-e]azepin-5-yl)acetamide] | 1 nM | 114 nM | 2 nM | –
10 | CCS(=O)(=O)Nc1cc2c(cc1Cl)C(c1ccc(F)cc1)=N[C@@H](C1CC1)c1cc(=O)n(C)cc1-2 [Compound 4077, (S)—N-(9-chloro-5-cyclopropyl-7-(4-flurophenyl)-2-methyl-3-oxo-3,5-dihydro-2H-benzo[c]pyrido[3,4-e]azepin-10-yl)ethylsulfonamide] | 0.4 nM | 0.4 nM | 1 nM | –
11 | C[C@@H]1N=C(c2ccc(F)cc2)c2cc(Cl)c(NS(C)(=O)=O)cc2-c2cn(C)c(=O)cc21 [Compound 4079, (S)—N-(9-chloro-7-(4-flurophenyl)-2,5-dimethyl-3-oxo-3,5-dihydro-2H-benzo[c]pyrido[3,4-e]azepin-10-yl)methylsulfamide] | 1 nM | 1 nM | 3 nM | –
12 | C[C@@H]1N=C(c2ccc(F)cc2)c2cc(Cl)c(NS(=O)(=O)C3CC3)cc2-c2cn(C)c(=O)cc21 [Compound 4080, (S)—N-(9-chloro-7-(4-flurophenyl)-2,5-dimethyl-3-oxo-3,5-dihydro-2H-benzo[c]pyrido[3,4-e]azepin-10-yl)cyclopropylsulfamide] | 1 nM | 3 nM | 2 nM | –
13 | CCS(=O)(=O)Cc1ccc2c(c1)-c1cn(C)c(=O)cc1C(COC)N=C2c1ccc(F)cc1 (stereo not drawn) [Compound 4082, 10-((ethylsulfonyl)methyl)-7-(4-flurophenyl)-5-(methoxylmethyl)-2-methyl-2,5-dihydro-3H-benzo[c]pyrido[3,4-e]azepin-3-ketone] | 1 nM | 11 nM | 2 nM | –
14 | CCC(=O)Nc1cc2c(cc1F)C(c1ccc(F)cc1)=N[C@@H](C)c1cc(=O)n(C)cc1-2 [Compound 4083, (S)—N-(9-fluoro-7-(4-flurophenyl)-2,5-dimethyl-3-oxo-3,5-dihydro-2H-benzo[c]pyrido[3,4-e]azepin-10-yl)propanamide] | 4 nM | 31 nM | 8 nM | –
15 | CCS(=O)(=O)Nc1cc2c(cc1F)C(c1ccc(F)cc1)=N[C@@H](C1CC1)c1cc(=O)n(C)cc1-2 [Compound 4084, (S)—N-(5-cyclopropyl-9-fluoro-7-(4-flurophenyl)-2-methyl-3-oxo-3,5-dihydro-2H-benzo[c]pyrido[3,4-e]azepin-10-yl)ethylsulfonamide] | 1 nM | 0.5 nM | 2 nM | –
16 | CCS(=O)(=O)Cc1cc2c(cc1F)C(c1ccc(F)cc1)=N[C@@H](C)c1cc(=O)n(C)cc1-2 [Compound 4085, (S)-10-((ethylsulfonyl)methyl)-9-fluoro-7-(4-flurophenyl)-2,5-dimethyl-2,5-dihydro-3H-benzo[c]pyrido[3,4-e]azepin-3-ketone] | 1 nM | 4 nM | 2 nM | –
17 | CCS(=O)(=O)Cc1cc2c(cc1Cl)C(c1ccc(F)cc1)=N[C@@H](C)c1cc(=O)n(C)cc1-2 [Compound 4086, (S)-9-chloro-10-((ethylsulfonyl)methyl)-7-(4-flurophenyl)-2,5-dimethyl-2,5-dihydro-3H-benzo[c]pyrido[3,4-e]azepin-3-ketone] | 1 nM | 3 nM | 2 nM | –
18 | CCS(=O)(=O)Cc1ccc2c(c1)-c1cn(C)c(=O)cc1[C@H](C)N=C2c1ccc(F)cc1OC [Compound 4087, (S)-10-((ethylsulfonyl)methyl)-7-(4-fluoro-2-methoxylphenyl)-2,5-dimethyl-2,5-dihydro-3H-benzo[c]pyrido[3,4-e]azepin-3-ketone] | 1 nM | 26 nM | 4 nM | –
19 | CCS(=O)(=O)Cc1ccc2c(c1)-c1cn(C)c(=O)cc1[C@H](CCO)N=C2c1ccc(F)cc1 [Compound 4088, (S)-10-((ethylsulfonyl)methyl)-7-(4-flurophenyl)-5-(2-hydroxyethyl)-2-methyl-2,5-dihydro-3H-benzo[c]pyrido[3,4-e]azepin-3-ketone] | 1 nM | 26 nM | 3 nM | –
20 | CCS(=O)(=O)Cc1ccc2c(c1)-c1cn(C)c(=O)cc1CN=C2c1ccc(F)c(OC)c1 [Compound 4089, 10-((ethylsulfonyl)methyl)-7-(4-fluoro-3-methoxylphenyl)-2-methyl-2,5-dihydro-3H-benzo[c]pyrido[3,4-e]azepin-3-ketone] | 4 nM | 108 nM | 8 nM | –
21 | CNS(=O)(=O)C(C)(C)c1ccc2c(c1)-c1cn(C)c(=O)cc1[C@H](C)N=C2c1ccc(F)cc1 [Compound 4090, (S)-2-(7-(4-flurophenyl)-2,5-dimethyl-3-oxo-3,5-dihydro-2H-benzo[c]pyrido[3,4-e]azepin-10-yl)-N-methylpropane-2-sulfamide] | 1 nM | 3 nM | 1 nM | –
22 | CNS(=O)(=O)C(C)c1ccc2c(c1)-c1cn(C)c(=O)cc1[C@H](C)N=C2c1ccc(F)cc1 (stereo partly drawn) [Compound 4091, 1-((S)-7-(4-flurophenyl)-2,5-dimethyl-3-oxo-3,5-dihydro-2H-benzo[c]pyrido[3,4-e]azepin-10-yl)-N-methylethane-1-sulfamide] | 0.7 nM | 3 nM | 1 nM | –
23 | CCS(=O)(=O)Nc1cc2c(cc1F)C(c1ccc(F)cc1)=NN(C)c1cc(=O)n(C)cc1-2 [Compound 4092, N-(9-fluoro-7-(4-flurophenyl)-2,5-dimethyl-3-oxo-3,5-dihydro-2H-benzo[e]pyrido[4,3-c][1,2]diazepin-10-yl)ethylsulfonamide] | 0.6 nM | 3 nM | 1 nM | –
24 | CCS(=O)(=O)Cc1ccc2c(c1)-c1cn(C)c(=O)cc1N(C)N=C2c1ccc(F)cc1Cl [Compound 4093, 7-(2-chloro-4-flurophenyl)-10-((ethylsulfonyl)methyl)-2,5-dimethyl-2,5-dihydro-3H-benzo[e]pyrido[4,3-c][1,2]diazepin-3-ketone] | 0.7 nM | 17 nM | 5 nM | –
25 | CCS(=O)(=O)Cc1cc2c(cc1OC)C(c1ccc(F)cc1)=NCc1cc(=O)n(C)cc1-2 [Compound 4094, 10-((Ethylsulfonyl)methyl)-7-(4-flurophenyl)-9-methoxyl-2-methyl-2,5-dihydro-3H-benzo[c]pyrido[3,4-e]azepin-3-ketone] | 2 nM | 49 nM | 3 nM | –
26 | CCS(=O)(=O)Nc1cc2c(cc1F)C(c1ccc(F)cc1)=NC(C)c1cc(=O)n(C)nc1-2 (stereo not drawn) [Compound 4095, N-(9-Fluoro-7-(4-flurophenyl)-2,5-dimethyl-3-oxo-3,5-dihydropyridin-2H-benzo[c]pyridazino[3,4-e]azepin-10-yl)ethylsulfonamide] | 2 nM | 14 nM | 5 nM | –
